Key:
[1] = target: T1, human recombinant 15-PGDH (Homo sapiens, UniProt P15428); experiment: Recombinant 15-PGDH enzymatic inhibition assay (PGDH-Lumi, NADH signal); format: biochemical; settings: recombinant 15-PGDH; 15 min pre-incubation, 60 min reaction with PGE2 and NAD+, NADH signal
T1 sequence (P15428 1-266): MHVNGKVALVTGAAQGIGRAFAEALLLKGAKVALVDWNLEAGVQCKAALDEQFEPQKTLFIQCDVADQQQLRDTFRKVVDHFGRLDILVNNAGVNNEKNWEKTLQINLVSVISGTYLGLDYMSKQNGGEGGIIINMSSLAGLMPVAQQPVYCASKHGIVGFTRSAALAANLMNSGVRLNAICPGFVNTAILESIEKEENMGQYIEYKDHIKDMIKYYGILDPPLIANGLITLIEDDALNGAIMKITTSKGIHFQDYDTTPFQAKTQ
In short: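 Recombinant 15-PGDH pre-incubated 15 min at room temperature with compound (22 concentrations, 2-fold dilutions) in 50 mM Tris pH 7.5, 0.01% Tween-20, […].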

[2] = target: T2, 15-PGDH in A549 cells (Homo sapiens, UniProt P15428); experiment: A549 cellular 15-PGDH assay (PGE2 accumulation, HTRF); format: cell-based; settings: interleukin-stimulated, inhibitor 24 hrs, PGE2 by competitive HTRF, read-out: A549 Cell Assay IC50
T2 construct: endogenous in cells; host or cells: A549
T2 sequence (P15428 1-266): T1 sequence (P15428 1-266)
In short: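 IL-13-stimulated A549 lung carcinoma cells released PGE2, which was measured in supernatants by competitive HTRF with a Eu-cryptate anti-PGE2 antibody and labelled PGE2. Signal falls as PGE2 rises. IC50 values were derived from the binding data.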

IC50 [1] [nM] | IC50 [2] [nM] | Compound
0.371 | 1.69 | Cn1cc2cc(-c3ccc4cc(C5(O)CC(F)(F)C5)sc4n3)cnc2n1 [Compound C5, 3,3-difluoro-1-(6-(2-methyl-2H-pyrazolo[3,4-b]pyridin-5-yl)thieno[2,3-b]pyridin-2-yl)cyclobutanol]
1.24 | 2.15 | OC1(c2cc3ccc(-c4cnc5[nH]cnc5c4)nc3s2)CC(F)(F)C1 [Compound C41, 3,3-difluoro-1-(6-(3H-imidazo[4,5-b]pyridin-6-yl)thieno[2,3-b]pyridin-2-yl)cyclobutanol]
0.58 | 0.361 | Cn1cc2cc(-c3ccc4nc(C5(O)CC(C)(C)C5)sc4n3)cnc2n1 [Compound C68, 3,3-dimethyl-1-(5-(2-methyl-2H-pyrazolo[3,4-b]pyridin-5-yl)[1,3]thiazolo[5,4-b]pyridin-2-yl)cyclobutanol]
0.369 | 0.255 | CCn1cc2cc(-c3ccc4cc(C5(O)CC(F)(F)C5)sc4n3)cnc2n1 [Compound C32, 1-(6-(2-ethyl-2H-pyrazolo[3,4-b]pyridin-5-yl)thieno[2,3-b]pyridin-2-yl)-3,3-difluorocyclobutanol]
5.3 | 6.34 | CNc1ncc(-c2ccc3cc(C4(O)CC(F)(F)C4)sc3n2)cn1 [Compound C43, 3,3-difluoro-1-(6-(2-(methylamino)-5-pyrimidinyl)thieno[2,3-b]pyridin-2-yl)cyclobutanol]
0.43 | 1.95 | Cn1cc2cc(-c3ncc4cc(C5(O)CC6(CC(F)(F)C6)C5)sc4n3)cnc2n1 [Compound C116, 6,6-difluoro-2-(2-(2-methyl-2H-pyrazolo[3,4-b]pyridin-5-yl)thieno[2,3-d]pyrimidin-6-yl)spiro[3.3]heptan-2-ol]
0.363 | 0.0361 | Cn1cc2cc(-c3ccc4cc(C5(O)CC6(CCCC6)C5)sc4n3)cnc2n1 [Compound C53, 2-(6-(2-methyl-2H-pyrazolo[3,4-b]pyridin-5-yl)thieno[2,3-b]pyridin-2-yl)spiro[3.4]octan-2-ol]
0.379 | 0.0582 | Cn1cc2cc(-c3ccc4cc(C5(O)CC6(CC(F)(F)C6)C5)sc4n3)cnc2n1 [Compound C27, 6,6-difluoro-2-(6-(2-methyl-2H-pyrazolo[3,4-b]pyridin-5-yl)thieno[2,3-b]pyridin-2-yl)spiro[3.3]heptan-2-ol]

The remaining lines, values behind:

Compound | IC50 [1] [nM] | IC50 [2] [nM]
COCC(O)c1cc2ccc(-c3cnc4nn(C)cc4c3)nc2s1 (stereo not drawn) [Compound B32, 2-methoxy-1-(6-(2-methyl-2H-pyrazolo[3,4-b]pyridin-5-yl)thieno[2,3-b]pyridin-2-yl)ethanol] | 1.18 | 7.49
Cn1cc2cc(-c3ccc4ccc([C@H](O)C5CCOCC5)cc4n3)cnc2n1 (single isomer, unassigned) [Compound D4R] | 243 | 187
Cn1cc2cc(-c3ccc4cc([C@H](O)CCC(F)(F)F)sc4c3)cnc2n1 (single isomer, unassigned) [Compound B60R] | 1.17 | 3.38
CC(C)n1cc2cc(-c3ccc4cc(C(O)C5CC(F)(F)C5)sc4n3)ccc2n1 (stereo not drawn) [Compound B56, (3,3-difluorocyclobutyl)(6-(2-(2-propanyl)-2H-indazol-5-yl)thieno[2,3-b]pyridin-2-yl)methanol] | 1.15 | 3.22
CC(C)C(O)c1cc2ccc(-c3cnc4nn(C)cc4c3)nc2s1 (stereo not drawn) [Compound B24, 2-methyl-1-(6-(2-methyl-2H-pyrazolo[3,4-b]pyridin-5-yl)thieno[2,3-b]pyridin-2-yl)propan-1-ol] | 0.517 | 0.579
Cc1c2ccc(-c3cnc4nn(C)cc4c3)nc2sc1[C@]1(O)C[C@@H](C(F)F)C1 [Compound C83C, cis-3-(difluoromethyl)-1-(3-methyl-6-(2-methyl-2H-pyrazolo[3,4-b]pyridin-5-yl)thieno[2,3-b]pyridin-2-yl)cyclobutanol] | 5.33 | 12.3
Cn1cc2cc(-c3ccc4cc([C@@H](O)[C@H]5CCC5(F)F)sc4n3)cnc2n1 (single isomer, unassigned) [Compound B94SR] | 0.64 | 2.64
Cn1nc2cc(-c3ccc4cc([C@H](O)C5CCOCC5)sc4n3)cnc2n1 (single isomer, unassigned) [Compound B39R] | 0.423 | 2.37
Cn1cc2cc(-c3ccc4c(Cl)c([C@]5(O)C[C@@H](C(F)(F)F)C5)sc4n3)cnc2n1 [Compound C75C, cis-1-(3-chloro-6-(2-methyl-2H-pyrazolo[3,4-b]pyridin-5-yl)thieno[2,3-b]pyridin-2-yl)-3-(trifluoromethyl)cyclobutanol] | 0.707 | 1.07
Cn1nnc2cc(-c3ccc4nc([C@]5(O)C[C@@H](C(F)F)C5)sc4n3)cnc21 [Compound C82C, cis-3-(difluoromethyl)-1-(5-(3-methyl-3H-[1,2,3]triazolo[4,5-b]pyridin-6-yl)[1,3]thiazolo[5,4-b]pyridin-2-yl)cyclobutanol] | 9.49 | 34.2
Cn1cc2cc(-c3ccc4cc([C@]5(O)C[C@H](F)C5)sc4n3)cnc2n1 [Compound C40T, trans-3-fluoro-1-(6-(2-methyl-2H-pyrazolo[3,4-b]pyridin-5-yl)thieno[2,3-b]pyridin-2-yl)cyclobutanol] | 6.58 | 3.36
Cn1cc2cc(-c3ccc4sc([C@]5(O)C[C@@H](OC(F)(F)F)C5)cc4n3)cnc2n1 [Compound C117C, cis-1-(5-(2-methyl-2H-pyrazolo[3,4-b]pyridin-5-yl)thieno[3,2-b]pyridin-2-yl)-3-(trifluoromethoxy)cyclobutanol] | 0.429 | 1.46
Cn1cc2cc(-c3ccc4ccc([C@]5(O)C[C@@H](C(F)F)C5)cc4n3)cnc2n1 [Compound D5C, cis-3-(difluoromethyl)-1-(2-(2-methyl-2H-pyrazolo[3,4-b]pyridin-5-yl)-7-quinolinyl)cyclobutanol] | 198 | 253
O[C@@H](c1cc2ccc(-c3cncnc3)nc2s1)C1CC(F)(F)C1 (single isomer, unassigned) [Compound B57R] | 0.32 | 0.657
COC[C@H]1C[C@](O)(c2cc3cnc(-c4cnc5nn(C)cc5c4)nc3s2)C1 [Compound C119C, cis-3-(methoxymethyl)-1-(2-(2-methyl-2H-pyrazolo[3,4-b]pyridin-5-yl)thieno[2,3-d]pyrimidin-6-yl)cyclobutanol] | 2.8 | 6.66
Cn1cc2cc(-c3ccc4cc([C@H](O)C(F)(F)F)sc4n3)cnc2n1 (single isomer, unassigned) [Compound B23R] | 0.422 | 0.389
O[C@]1(c2cc3cnc(-c4cccnc4)nc3s2)C[C@H](C(F)(F)F)C1 [Compound C122C, cis-1-(2-(3-pyridinyl)thieno[2,3-d]pyrimidin-6-yl)-3-(trifluoromethyl)cyclobutanol] | 6.83 | 18.3
CO[C@H]1C[C@@H]([C@H](O)c2cc3ccc(-c4cnc5nn(C)cc5c4)nc3s2)C1 (single isomer, unassigned) [Compound B88SC] | 10.1 | 0.522
CO[C@H]1C[C@](O)(c2sc3nc(-c4cnc5nn(C)cc5c4)ccc3c2Cl)C1 [Compound C69C, cis-1-(3-chloro-6-(2-methyl-2H-pyrazolo[3,4-b]pyridin-5-yl)thieno[2,3-b]pyridin-2-yl)-3-methoxycyclobutanol] | 1.16 | 0.722

From patent US20240409557A1, “5,6-FUSED AND 6,6-FUSED BICYCLIC ALCOHOLS AND ETHERS AND COMPOSITIONS FOR USE AS 15-PROSTAGLANDIN DEHYDROGENASE MODULATORS” (AMGEN INC., priority 2023, published 2024)
